Target: T1, His6-LIMP-2_35-430 (Homo sapiens, UniProt Q14108)
T1 sequence (Q14108 35-430): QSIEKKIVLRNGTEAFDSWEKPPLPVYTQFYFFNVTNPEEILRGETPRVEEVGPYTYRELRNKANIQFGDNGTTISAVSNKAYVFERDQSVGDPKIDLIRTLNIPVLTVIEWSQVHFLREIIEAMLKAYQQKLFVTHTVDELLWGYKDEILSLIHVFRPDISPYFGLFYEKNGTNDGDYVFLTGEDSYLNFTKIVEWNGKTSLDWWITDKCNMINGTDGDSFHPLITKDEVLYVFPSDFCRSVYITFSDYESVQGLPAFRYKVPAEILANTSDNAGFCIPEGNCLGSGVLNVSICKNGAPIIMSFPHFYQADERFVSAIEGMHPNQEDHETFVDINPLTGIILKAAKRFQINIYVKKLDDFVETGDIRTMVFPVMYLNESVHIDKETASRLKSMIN
Assay: microscale thermophoresis
Assay type: binding

Row | Kd | SMILES
1 | 241 µM | COc1ccc2cc1Oc1ccc(cc1)C[C@H]1c3cc(c(OC)cc3CCN1C)Oc1c(OC)c(OC)cc3c1[C@H](C2)N(C)CC3 [Tetrandrine]
2 | 3.7 µM | CC(C)CCC[C@@H](C)[C@H]1CC[C@H]2[C@@H]3CC=C4C[C@@H](O)CC[C@]4(C)[C@H]3CC[C@]12C [cholesterol]

Source: publication PMC12238253 (Nature Communications, 2025)
